Source: ChEMBL document CHEMBL3301472, “MMV Malaria Box HIV and cytotoxicity screening”

Legend:
[1] = MMV: MTT Cytotoxicity Assay Day 7 pi of Assay #7 (compound washed out Day 1 pi), U87-CD4-CXCR4 cells, % cell death @ 5mM compound; type: toxicity, cell-based; settings: human, u87-cd4-cxcr4, 5000 µM
[2] = system: Human immunodeficiency virus 1; assay: MMV: HIV JRFL CCR5-tropic replication-competent virus, virus & compound washed out Day 1 pi, P24 ELISA Day 7 pi, U87-CD4-CCR5, % inhibition at 5 mM compound; type: functional; design: dose or concentration left out as unconfirmed; settings: Human immunodeficiency virus 1, JR-FL
[3] = MMV: MTT Cytotoxicity Assay Day 3 pi, U87-CD4-CXCR4 cells, % cell death @ 5mM compound; type: toxicity, cell-based; settings: human, u87-cd4-cxcr4, 5000 µM
[4] = MMV: MTT Cytotoxicity Assay Day 3 pi, U87-CD4-CCR5 cells, % cell death @ 5mM compound; type: toxicity, cell-based; settings: human, u87-cd4-ccr5, 5000 µM
[5] = MMV: MTT Cytotoxicity Assay Day 7 pi of Assay #10 (NO washout), U87-CD4-CCR5 cells, % cell death @ 5mM compound; type: toxicity, cell-based; settings: human, u87-cd4-ccr5, 5000 µM
[6] = MMV: MTT Cytotoxicity Assay Day 7 pi of Assay #11 (NO washout), U87-CD4-CXCR4 cells, % cell death @ 5mM compound; type: toxicity, cell-based; settings: human, u87-cd4-cxcr4, 5000 µM
[7] = MMV: MTT Cytotoxicity Assay Day 7 pi of Assay #6 (compound washed out Day 1 pi), U87-CD4-CCR5 cells, % cell death @ 5mM compound; type: toxicity, cell-based; settings: human, u87-cd4-ccr5, 5000 µM
[8] = system: Human immunodeficiency virus 1; assay: MMV: HIV CXCR4-tropic env NL4-3 pseudovirus assay produces luciferase signal in lieu of replicating viral particles Day 3 pi, U87-CD4-CXCR4, % inhibition at 5 mM compound; type: functional; design: dose or concentration left out as unconfirmed; settings: Human immunodeficiency virus 1, NL4-3, U87.CD4.CXCR4, 72 h

COc1ccc(-c2nc(N3CCN(C(=O)C4CCCCC4)CC3)c3c4c(sc3n2)CCCC4)cc1
% Cell Death [1]: -26 | inhibition [2]: 5% | % Cell Death [3]: 46 | % Cell Death [4]: 2 | % Cell Death [5]: 113 | % Cell Death [6]: 104 | % Cell Death [7]: -3

CN1CCN(c2ncnc3c2[nH]c2ccc(Cl)cc23)CC1
% Cell Death [1]: -25 | inhibition [2]: 10% | % Cell Death [3]: 27 | % Cell Death [4]: -11 | % Cell Death [5]: 31 | % Cell Death [6]: 1 | % Cell Death [7]: 29

CC(C)CNC(=O)c1c(N)n(CCc2ccccc2F)c2nc3ccccc3nc12
% Cell Death [1]: -6 | inhibition [2]: 3% | % Cell Death [3]: 47 | % Cell Death [4]: 0 | % Cell Death [5]: 35 | % Cell Death [6]: 99 | % Cell Death [7]: 4

Cc1ccc(-c2cc(C(=O)Nc3ccc(S(=O)(=O)N4CCCCC4)cc3)[nH]n2)c(O)c1
% Cell Death [1]: -29 | inhibition [2]: 6% | % Cell Death [3]: 11 | % Cell Death [4]: -5 | % Cell Death [5]: 10 | % Cell Death [6]: 16 | % Cell Death [7]: 18

CCOC(=O)C1=C(C)N=c2sc(=Cc3cc(Cl)ccc3O)c(=O)n2C1c1ccc(OC)cc1 (stereo not drawn)
% Cell Death [1]: -6 | inhibition [2]: 1% | % Cell Death [3]: 15 | % Cell Death [4]: -27 | % Cell Death [5]: 11 | % Cell Death [6]: -46 | % Cell Death [7]: 10

O=C(NCc1ccco1)C1CCN(S(=O)(=O)c2ccc(Cl)cc2)CC1
% Cell Death [1]: -15 | inhibition [2]: 1% | % Cell Death [3]: 12 | % Cell Death [4]: 22 | % Cell Death [5]: 18 | % Cell Death [6]: 23 | % Cell Death [7]: 37

COc1ccc(N2CCN(C(CNC(=O)C3CCCCC3)c3ccc4c(c3)OCO4)CC2)cc1 (stereo not drawn)
% Cell Death [1]: 6 | inhibition [2]: 10% | % Cell Death [3]: 63 | % Cell Death [4]: 17 | % Cell Death [5]: 38 | % Cell Death [6]: 71 | % Cell Death [7]: 25

COc1cc2cc(C(=O)Nc3ccccc3)c(N)nc2cc1OC
% Cell Death [1]: 51 | inhibition [2]: 9% | % Cell Death [3]: 43 | % Cell Death [4]: 75 | % Cell Death [5]: 95 | % Cell Death [6]: 106 | % Cell Death [7]: 0

COc1cccc(NC(=O)[C@H](C(C)C)n2c(=O)[nH]c3ccccc3c2=O)c1
% Cell Death [1]: 5 | inhibition [8]: 0% | % Cell Death [3]: 20 | % Cell Death [4]: 24 | % Cell Death [5]: 27 | % Cell Death [6]: 7 | % Cell Death [7]: 24

CC(=O)c1ccc(NC(=O)CSc2nc(-c3ccccc3Cl)ns2)cc1
% Cell Death [1]: 8 | inhibition [2]: 7% | % Cell Death [3]: 51 | % Cell Death [4]: 57 | % Cell Death [5]: 41 | % Cell Death [6]: -33 | % Cell Death [7]: 7

Cc1sc2ncnc(Sc3nc4ccccc4[nH]3)c2c1C
% Cell Death [1]: -5 | inhibition [2]: -1% | % Cell Death [3]: 18 | % Cell Death [4]: 16 | % Cell Death [5]: 27 | % Cell Death [6]: -15 | % Cell Death [7]: -6

COCCNC(=O)c1ccc(OC2CCN(Cc3ccc(F)c(F)c3)CC2)c(Cl)c1
% Cell Death [1]: -5 | inhibition [2]: 9% | % Cell Death [3]: 4 | % Cell Death [4]: 31 | % Cell Death [5]: 15 | % Cell Death [6]: -22 | % Cell Death [7]: 20

CCC(=O)Nc1nnc(Cc2ccc(OC)c(OC)c2)s1
% Cell Death [1]: -14 | inhibition [2]: -1% | % Cell Death [3]: 21 | % Cell Death [4]: 17 | % Cell Death [5]: 9 | % Cell Death [6]: -23 | % Cell Death [7]: -1

CCCCOC(=O)c1ccc(Nc2cc(C)nc3ccc(OC)cc23)cc1
% Cell Death [1]: -10 | inhibition [2]: 0% | % Cell Death [3]: 30 | % Cell Death [4]: 32 | % Cell Death [5]: 21 | % Cell Death [6]: -45 | % Cell Death [7]: 16

Cc1ccc(CSCc2ccc(C(=O)NC3CC3)o2)cc1
% Cell Death [1]: -23 | inhibition [2]: 2% | % Cell Death [3]: 12 | % Cell Death [4]: 23 | % Cell Death [5]: -6 | % Cell Death [6]: -2 | % Cell Death [7]: 18

Cc1cc(Nc2cccc(F)c2)nc(NCc2ccccc2)n1
% Cell Death [1]: -12 | inhibition [2]: 5% | % Cell Death [3]: 33 | % Cell Death [4]: 21 | % Cell Death [5]: 20 | % Cell Death [6]: -41 | % Cell Death [7]: 6

Cc1cccc(Nc2nc(N)c3ccccc3n2)c1.Cl
% Cell Death [1]: -15 | inhibition [2]: 5% | % Cell Death [3]: 43 | % Cell Death [4]: 7 | % Cell Death [5]: 43 | % Cell Death [6]: 71 | % Cell Death [7]: 28

CN(C)c1ccc(-c2nc3cc(N)ccc3[nH]2)cc1
% Cell Death [1]: -21 | inhibition [2]: 0% | % Cell Death [3]: 19 | % Cell Death [4]: 22 | % Cell Death [5]: 2 | % Cell Death [6]: -20 | % Cell Death [7]: -1

Cl.Clc1cc(Br)ccc1-c1ccc(CNCC2CCNCC2)o1
% Cell Death [1]: 4 | inhibition [2]: 4% | % Cell Death [3]: 27 | % Cell Death [4]: 15 | % Cell Death [5]: 0 | % Cell Death [6]: -60 | % Cell Death [7]: -9

c1ccc2c(NCCc3c[nH]c4ccccc34)c3ccccc3nc2c1
% Cell Death [1]: -4 | inhibition [2]: 5% | % Cell Death [3]: 62 | % Cell Death [4]: 64 | % Cell Death [5]: 20 | % Cell Death [6]: 42 | % Cell Death [7]: 29

Cc1cc(NC(=O)c2ccc(-c3ccccc3)cc2)no1
% Cell Death [1]: -27 | inhibition [2]: 4% | % Cell Death [3]: 43 | % Cell Death [4]: -16 | % Cell Death [5]: 32 | % Cell Death [6]: -1 | % Cell Death [7]: -24

Cc1ccc(-c2nc3ccccc3o2)cc1NCc1cc(Cc2ccccc2)ccc1O
% Cell Death [1]: -11 | inhibition [2]: 8% | % Cell Death [3]: 15 | % Cell Death [4]: 27 | % Cell Death [5]: 13 | % Cell Death [6]: 52 | % Cell Death [7]: -7

Cc1cc(C)c2nc(N3CCC(C(=O)NCCCN4CCC(N5CCCCC5)CC4)CC3)sc2c1
% Cell Death [1]: -20 | inhibition [2]: 1% | % Cell Death [3]: 8 | % Cell Death [4]: -8 | % Cell Death [5]: -39 | % Cell Death [6]: -37 | % Cell Death [7]: 5

CCn1c(SCC(=O)Nc2cc(C(F)(F)F)ccc2Cl)nc2ccccc2c1=O
% Cell Death [1]: -27 | inhibition [2]: 8% | % Cell Death [3]: 81 | % Cell Death [4]: -1 | % Cell Death [5]: 19 | % Cell Death [6]: 17 | % Cell Death [7]: 23

CCOc1cccc2sc(N(Cc3cccnc3)C(=O)C3CCCCC3)nc12
% Cell Death [1]: 8 | inhibition [2]: 4% | % Cell Death [3]: 9 | % Cell Death [4]: 2 | % Cell Death [5]: 65 | % Cell Death [6]: 52 | % Cell Death [7]: 34

CC(O)(c1ccc(Cl)cc1)C(CN1CCCCC1)c1ccccc1.Cl (stereo not drawn)
% Cell Death [1]: -24 | inhibition [2]: 3% | % Cell Death [3]: 3 | % Cell Death [4]: -11 | % Cell Death [5]: 19 | % Cell Death [6]: -5 | % Cell Death [7]: 24

CCCOCc1cc(CN2CCN(c3cccc(Cl)c3)CC2)c(O)c2ncccc12
% Cell Death [1]: -7 | inhibition [2]: 9% | % Cell Death [3]: 31 | % Cell Death [4]: 24 | % Cell Death [5]: 15 | % Cell Death [6]: -57 | % Cell Death [7]: -8

O=c1nc(C=Cc2ccc(Cl)cc2)oc2ccccc12
% Cell Death [1]: -17 | inhibition [2]: 1% | % Cell Death [3]: 20 | % Cell Death [4]: 50 | % Cell Death [5]: 26 | % Cell Death [6]: -47 | % Cell Death [7]: 7

CN(C)c1ccc(N2C(N)=NC(N)=NC2(C)C)cc1
% Cell Death [1]: 12 | inhibition [2]: 1% | % Cell Death [3]: 21 | % Cell Death [4]: -12 | % Cell Death [5]: 4 | % Cell Death [6]: 21 | % Cell Death [7]: 14

COc1ccc(Nc2nc(NCc3ccccc3)c3ccccc3n2)cc1
% Cell Death [1]: -30 | inhibition [2]: 2% | % Cell Death [3]: 28 | % Cell Death [4]: 18 | % Cell Death [5]: 41 | % Cell Death [6]: -24 | % Cell Death [7]: 21

COc1ccc(C(C)=O)cc1N1C(=O)C2C(C1=O)C1(c3ccccc3)C(=O)C2(c2ccccc2)C(c2ccc(C)cc2)=C1c1ccc(C)cc1 (stereo not drawn)
% Cell Death [1]: 14 | inhibition [8]: 3% | % Cell Death [3]: 39 | % Cell Death [4]: 28 | % Cell Death [5]: 16 | % Cell Death [6]: 5 | % Cell Death [7]: 2

Clc1ccc2c(N3CCCC3)ccnc2c1
% Cell Death [1]: 1 | inhibition [2]: 5% | % Cell Death [3]: 21 | % Cell Death [4]: 8 | % Cell Death [5]: 16 | % Cell Death [6]: -37 | % Cell Death [7]: 3

CCCCCCc1cc2cc(-c3nc4ccccc4[nH]3)c(=Nc3ccccc3C)oc2cc1O
% Cell Death [1]: -2 | inhibition [2]: 4% | % Cell Death [3]: 25 | % Cell Death [4]: 31 | % Cell Death [5]: 44 | % Cell Death [6]: 53 | % Cell Death [7]: 15

O=C(Nc1cccc(C2=NCCN2)c1)Nc1cccc(C2=NCCN2)c1 [IMIDOCARB]
% Cell Death [1]: 15 | inhibition [2]: 7% | % Cell Death [3]: 63 | % Cell Death [4]: 31 | % Cell Death [5]: 63 | % Cell Death [6]: 65 | % Cell Death [7]: -6
